The target of this assay is ASK1 (Homo sapiens (Human), UniProt Q99683). In words: HTRF KinEASE Assay (TR-FRET, STK3 peptide substrate), inhibition of ASK1. The following applies: 5 nM ASK1 kinase, 1 μM STK3 peptide substrate, 100 μM ATP, 3 hours; compound 0 to 10 μM. The assay is classed as biochemical. The procedure: Assay HTRF® KinEASE™ Assay
ASK1 was purchased from Thermofisher (Catalogue # PV4011), ATP was purchased from Sigma (Catalogue # A7699), HI-TRF® KinEASE™ Assay System was obtained from Cisbio (Bedford, Mass.). […] HTRF® KinEASE™-STK is a generic method for measuring serine/threonine kinase activities using a time-resolved fluorescence resonance energy transfer (TR-FRET) immunoassay. […] 100 Um ATP is added to start kinase reaction and incubated for 3 hours. The STK3-antibody labeled with Eu^3+-Cryptate and 125 Nm streptavidin-XL665 are mixed in a single addition with stop reagents provided by the Cisbio kit used to stop the kinase reaction. […] The resulting TR-FRET is proportional to the phosphorylation level. Staurosporine was used as the positive control. IC50 was determined by Xlfit 5.3.
By using above method, the inhibition of ASK1 was evaluated for the compounds of Formula (I).

Molecules are shown by their SMILES.

Sequence of ASK1 (Q99683 whole entry): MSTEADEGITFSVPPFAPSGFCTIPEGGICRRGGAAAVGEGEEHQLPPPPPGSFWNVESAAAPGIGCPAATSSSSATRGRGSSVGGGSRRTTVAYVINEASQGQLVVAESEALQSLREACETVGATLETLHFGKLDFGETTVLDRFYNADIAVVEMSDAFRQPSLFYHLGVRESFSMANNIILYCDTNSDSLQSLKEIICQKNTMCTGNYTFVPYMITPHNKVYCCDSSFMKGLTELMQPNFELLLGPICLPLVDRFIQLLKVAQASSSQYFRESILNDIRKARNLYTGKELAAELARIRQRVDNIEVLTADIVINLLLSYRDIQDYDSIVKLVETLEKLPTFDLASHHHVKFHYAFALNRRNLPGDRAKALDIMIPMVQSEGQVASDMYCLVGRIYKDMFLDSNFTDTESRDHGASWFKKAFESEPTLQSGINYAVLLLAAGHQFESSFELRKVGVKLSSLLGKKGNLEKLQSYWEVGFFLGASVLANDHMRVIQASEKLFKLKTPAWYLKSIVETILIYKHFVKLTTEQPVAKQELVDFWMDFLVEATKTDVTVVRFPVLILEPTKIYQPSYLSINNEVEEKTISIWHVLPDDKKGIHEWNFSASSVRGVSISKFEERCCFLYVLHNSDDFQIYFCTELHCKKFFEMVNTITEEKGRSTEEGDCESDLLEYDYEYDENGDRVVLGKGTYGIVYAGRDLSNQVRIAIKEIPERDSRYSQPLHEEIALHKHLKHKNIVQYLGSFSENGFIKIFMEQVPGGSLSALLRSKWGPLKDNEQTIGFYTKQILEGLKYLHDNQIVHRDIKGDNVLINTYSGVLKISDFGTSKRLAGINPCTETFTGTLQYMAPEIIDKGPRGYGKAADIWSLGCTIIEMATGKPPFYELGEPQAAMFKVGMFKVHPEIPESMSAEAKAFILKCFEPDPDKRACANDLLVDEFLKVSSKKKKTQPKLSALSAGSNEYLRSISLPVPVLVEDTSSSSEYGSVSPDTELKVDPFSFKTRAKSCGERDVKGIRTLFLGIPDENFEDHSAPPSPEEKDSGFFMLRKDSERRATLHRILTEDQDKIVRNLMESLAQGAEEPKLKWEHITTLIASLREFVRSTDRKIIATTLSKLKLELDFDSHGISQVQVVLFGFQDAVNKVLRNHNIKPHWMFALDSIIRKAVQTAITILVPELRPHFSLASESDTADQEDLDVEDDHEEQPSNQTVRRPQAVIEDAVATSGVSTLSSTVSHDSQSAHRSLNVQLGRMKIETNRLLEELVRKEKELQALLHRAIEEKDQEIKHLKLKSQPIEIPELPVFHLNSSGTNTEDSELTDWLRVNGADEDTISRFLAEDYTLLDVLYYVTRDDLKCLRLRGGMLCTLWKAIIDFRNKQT

With `CC(C)n1cnnc1-c1cccc(NC(=O)c2cc3c(cc2F)CCN(C(=O)NC2CCCC2)C3)n1` [Example 51], the IC50 is 1 to 10 nM. `CCNC(=O)N1CCc2cc(F)c(C(=O)Nc3cccc(-c4nncn4C(C)C)n3)cc2C1` [Example 52] registered an IC50 of 1 to 10 nM. With `CC(C)n1cnnc1-c1cccc(NC(=O)c2cc3c(cc2F)CCN(C(=O)OCc2ccccc2)C3)n1` [Example 53, benzyl 6-fluoro-7-((6-(4-isopropyl-4H-1,2,4-triazol-3-yl)pyridin-2-yl)carbamoyl)-3,4-dihydroisoquinoline-2(1H)-carboxylate] the figure was 10 to 100 nM. With `CC(C)n1nnnc1-c1cccc(NC(=O)c2cc3c(cc2F)CCN(c2ccccc2)C3)n1` [Example 54, 6-fluoro-N-(6-(1-isopropyl-1H-tetrazol-5-yl)pyridin-2-yl)-2-phenyl-1,2,3,4-tetrahydroisoquinoline-7-carboxamide] the figure was 10 to 100 nM.

The molecule `COCCS(=O)(=O)N1CCc2cc(F)c(C(=O)Nc3cccc(-c4nnnn4C(C)C)n3)cc2C1` [Example 55] gave an IC50 of 10 to 100 nM.

`CC(C)n1nnnc1-c1cccc(NC(=O)c2cc3c(cc2F)CCN(C(=O)NC2CCCC2)C3)n1` [Example 56] displayed an IC50 of 10 to 100 nM. Turning to `CC(C)n1nnnc1-c1cccc(NC(=O)c2cc3c(cc2F)CCN(C(=O)OC2CCCC2)C3)n1` [Example 57], the half-inhibitory concentration (IC50) lay in the range of 10 to 100 nM. As to `CC(C)n1nnnc1-c1cccc(NC(=O)c2cc3c(cc2F)CCNC3)n1` [Example 58], the IC50 was 100 to 1000 nM. In turn, `C=CCOC(=O)N1CCc2ccc(C(=O)Nc3cccc(-c4nncn4C(C)C)n3)cc2C1` [Example 59, allyl 7-((6-(4-isopropyl-4H-1,2,4-triazol-3-yl)pyridin-2-yl)carbamoyl)-3,4-dihydroisoquinoline-2(1H)-carboxylate] returned an IC50 of 10 to 100 nM. With `COCCC(=O)N1CCc2ccc(C(=O)Nc3cccc(-c4nncn4C(C)C)n3)cc2C1` [Example 60] the figure was 10 to 100 nM. With `CC(C)n1cnnc1-c1cccc(NC(=O)c2ccc3c(c2)CN(C(=O)NC2CCCC2)CC3)n1` [Example 61] the figure was 10 to 100 nM; with `CCCCNC(=O)N1CCc2ccc(C(=O)Nc3cccc(-c4nncn4C(C)C)n3)cc2C1` [Example 62], 1 to 10 nM. Consider `CCNC(=O)N1CCc2ccc(C(=O)Nc3cccc(-c4nncn4C(C)C)n3)cc2C1` [Example 63], for which the IC50 fell in the range of 1 to 10 nM. With `C=CCCOC(=O)N1CCc2ccc(C(=O)Nc3cccc(-c4nncn4C(C)C)n3)cc2C1` [Example 64] the figure was 10 to 100 nM; with `CC(C)n1cnnc1-c1cccc(NC(=O)c2ccc3c(c2)CN(C(=O)OCCF)CC3)n1` [Example 65], 10 to 100 nM; with `CC(C)COC(=O)N1CCc2ccc(C(=O)Nc3cccc(-c4nncn4C(C)C)n3)cc2C1` [Example 66], 10 to 100 nM. Molecule `CC(C)n1cnnc1-c1cccc(NC(=O)c2ccc3c(c2)CN(C(=O)OCc2ccccc2)CC3)n1` [Example 67, benzyl 7-((6-(4-isopropyl-4H-1,2,4-triazol-3-yl)pyridin-2-yl)carbamoyl)-3,4-dihydroisoquinoline-2(1H)-carboxylate] came in with an IC50 of 10 to 100 nM. With `CC1NCCc2cc(F)c(C(=O)Nc3cccc(-c4nnnn4C(C)C)n3)cc21` (stereo not drawn) [Example 68, 6-fluoro-N-(6-(1-isopropyl-1H-tetrazol-5-yl)pyridin-2-yl)-1-methyl-1,2,3,4-tetrahydroiso-quinoline-7-carboxamide] the figure was 100 to 1000 nM; with `CC1c2cc(C(=O)Nc3cccc(-c4nnnn4C(C)C)n3)c(F)cc2CCN1C(=O)N1CCCC1` (stereo not drawn) [Example 69], 10 to 100 nM.

In the case of `CC1c2cc(C(=O)Nc3cccc(-c4nnnn4C(C)C)n3)c(F)cc2CCN1S(=O)(=O)CCC(F)(F)F` (stereo not drawn) [Example 70], the IC50 was 10 to 100 nM. As for `CC(C)c1nnnn1-c1cccc(NC(=O)c2cc3c(cc2F)CCNC3)n1` [Example 71], the IC50 was over 1000 nM. In the case of `CC(=O)OC[C@@H](C)n1nnnc1-c1cccc(NC(=O)c2cc3c(cc2F)CCN(C(=O)N(C)CC(F)(F)F)C3)n1` [Example 72], the half-maximal inhibitory concentration (IC50) is over 1000 nM. `CC(=O)OC[C@@H](C)n1nnnc1-c1cccc(NC(=O)c2cc3c(cc2F)CCN(C(=O)N2CCCC2)C3)n1` [Example 73] displayed an IC50 of over 1000 nM.

For the molecule `CC1c2cc(C(=O)Nc3cccc(-c4nnnn4C(C)C)n3)c(F)cc2CCN1C(=O)OCc1ccccc1` (stereo not drawn) [Example 74, benzyl 6-fluoro-7-((6-(1-isopropyl-1H-tetrazol-5-yl)pyridin-2-yl)carbamoyl)-1-methyl-3,4-dihydroisoquinoline-2(1H)-carboxylate], the IC50 was 100 to 1000 nM. With `C[C@H](CO)n1nnnc1-c1cccc(NC(=O)c2cc3c(cc2F)CCN(C(=O)N(C)CC(F)(F)F)C3)n1` [Example 75, (R)-6-fluoro-N7-(6-(1-(1-hydroxypropan-2-yl)-1H-tetrazol-5-yl)pyridin-2-yl)-N2-methyl-N2-(2,2,2-trifluoroethyl)-3,4-dihydroisoquinoline-2,7(1H)-dicarboxamide] the figure was 10 to 100 nM; with `C[C@H](CO)n1nnnc1-c1cccc(NC(=O)c2cc3c(cc2F)CCN(C(=O)N2CCCC2)C3)n1` [Example 76], 1 to 10 nM; with `CC(C)n1nnnc1-c1cccc(NC(=O)c2cc3c(cc2F)CCN(C(=O)N(C)CC(F)(F)F)C3)n1` [Example 77], 10 to 100 nM. On to `CC(C)n1nnnc1-c1cccc(NC(=O)c2cc3c(cc2F)CCN(C(=O)N(C)C2CCCC2)C3)n1` [Example 78], for which the IC50 lay in the range of 10 to 100 nM. `CC(C)CN(C)C(=O)N1CCc2cc(F)c(C(=O)Nc3cccc(-c4nnnn4C(C)C)n3)cc2C1` [Example 79] yielded an IC50 of 10 to 100 nM. `CC(C)N(C)C(=O)N1CCc2cc(F)c(C(=O)Nc3cccc(-c4nnnn4C(C)C)n3)cc2C1` [Example 80] returned an IC50 of 10 to 100 nM. `CC(=O)OC[C@@H](C)n1nnnc1-c1cccc(NC(=O)c2cc3c(cc2F)CCNC3)n1` [Example 81] returned an IC50 of over 1000 nM. With `C[C@H](CO)n1nnnc1-c1cccc(NC(=O)c2cc3c(cc2F)CCN(S(=O)(=O)CCC(F)(F)F)C3)n1` [Example 82] the figure was 1 to 10 nM. With `CC(C)c1nnnn1-c1cccc(NC(=O)c2cc3c(cc2F)CCN(C(=O)OCc2ccccc2)C3)n1` [Example 83, benzyl 6-fluoro-7-((6-(5-isopropyl-1H-tetrazol-1-yl)pyridin-2-yl)carbamoyl)-3,4-dihydroisoquinoline-2(1H)-carboxylate] the figure was over 1000 nM; with `CC(=O)OC[C@@H](C)n1nnnc1-c1cccc(NC(=O)c2cc3c(cc2F)CCN(S(=O)(=O)CCC(F)(F)F)C3)n1` [Example 84], over 1000 nM; with `CC(C)n1nnnc1-c1cccc(NC(=O)c2cc3c(cc2F)CCN(S(=O)(=O)C2CCCC2)C3)n1` [Example 85], 10 to 100 nM.

Regarding `CC(C)CS(=O)(=O)N1CCc2cc(F)c(C(=O)Nc3cccc(-c4nnnn4C(C)C)n3)cc2C1` [Example 86], the IC50 lay in the range of 10 to 100 nM.

`CC(C)n1nnnc1-c1cccc(NC(=O)c2cc3c(cc2F)CCN(S(=O)(=O)CC2CC2)C3)n1` [Example 87] yielded an IC50 of 10 to 100 nM. With `CC(C)n1nnnc1-c1cccc(NC(=O)c2cc3c(cc2F)CCN(S(=O)(=O)C2CC2)C3)n1` [Example 88] the figure was over 1000 nM; with `CC(C)n1nnnc1-c1cccc(NC(=O)c2cc3c(cc2F)CCN(S(=O)(=O)N(C)C)C3)n1` [Example 89], 10 to 100 nM.

The values above are taken from US10450301B2, “Apoptosis signal-regulating kinase 1 inhibitors and methods of use thereof” (ENANTA PHARMACEUTICALS, INC., priority 2017, dated 2019).
